US12060347B2 (BRISTOL-MYERS SQUIBB COMPANY, priority 2016, dated 2024)

Target: T1, human PAR4 (Homo sapiens, UniProt Q96RI0)
T1 construct: expressed in transfected cells; host or cells: HEK293 PAR4 Clone 1.2A (BMS Arctic ID 383940)
T1 sequence (Q96RI0 18-385): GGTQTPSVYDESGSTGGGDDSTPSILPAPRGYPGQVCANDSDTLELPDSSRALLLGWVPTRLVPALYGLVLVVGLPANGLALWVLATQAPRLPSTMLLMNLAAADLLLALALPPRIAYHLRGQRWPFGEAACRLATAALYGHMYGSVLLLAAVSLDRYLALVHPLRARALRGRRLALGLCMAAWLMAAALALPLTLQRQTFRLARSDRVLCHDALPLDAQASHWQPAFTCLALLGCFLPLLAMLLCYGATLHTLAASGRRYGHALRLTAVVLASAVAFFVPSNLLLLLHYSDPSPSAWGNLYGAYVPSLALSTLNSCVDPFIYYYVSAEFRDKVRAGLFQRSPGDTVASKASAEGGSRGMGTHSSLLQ
Experiment: PAR4 FLIPR assay: antagonism of agonist-peptide-induced calcium mobilization in PAR4-expressing HEK293 cells
Format: cell-based
Details: H-Ala-Phe(4-F)-[…]NH2-induced intracellular calcium mobilization, 11-point curves

IC50 [nM]	SMILES
1.5	COc1cnc2c(-c3nc4cc(F)c(O[C@@H](C)[C@@H](C)OC(=O)Nc5cnc(C)nc5)cc4s3)cc(F)cc2c1 [Example 772, (2R,3S)-3-((5-fluoro-2-(6-fluoro-3-methoxyquinolin-8-yl)benzo[d]thiazol-6-yl)oxy)butan-2-yl (2-methylpyrimidin-5-yl)carbamate]
21	COc1cnc2c(-c3nc4c(s3)CC(OC)CC4)cc(C)cc2n1 (stereo not shown) [Example 140, 6-methoxy-2-(2-methoxy-7-methylquinoxalin-5-yl)-4,5,6,7-tetrahydrobenzo[d]thiazole]
2.1	COc1cnc2c(-c3nc4cc(F)c(OC[C@@H](C)OC(=O)Nc5ccc(C(=O)NCC(C)(C)O)nc5)nc4s3)cc(C)cc2n1 [Example 741, (R)-1-((6-fluoro-2-(2-methoxy-7-methylquinoxalin-5-yl)thiazolo[5,4-b]pyridin-5-yl)oxy) propan-2-yl (6-((2-hydroxy-2-methylpropyl)carbamoyl)pyridin-3-yl)carbamate]
2.5	COc1cnc2c(-c3nc4c(C)cc(OCCNS(=O)(=O)c5ccc(F)cc5)nc4s3)cc(C)cc2n1 [Example 194, 4-fluoro-N-(2-((2-(2-methoxy-7-methylquinoxalin-5-yl)-7-methylthiazolo[5,4-b]pyridin-5-yl)oxy)ethyl)benzenesulfonamide]
7.3	COc1cc(C(O)C2(c3ccccc3)CC2)c2nc(-c3cc(C)cc4nc(OC)cnc34)sc2c1 (stereo not shown) [Example 668, (6-methoxy-2-(2-methoxy-7-methylquinoxalin-5-yl)benzo[d]thiazol-4-yl)(1-phenylcyclopropyl)methanol]
19	Cc1cnc2c(-c3nc4c(C)cc(OCCNS(=O)(=O)c5ccc(F)cc5)cc4s3)cc(F)cc2n1 [Example 247, 4-fluoro-N-(2-((2-(7-fluoro-2-methylquinoxalin-5-yl)-4-methylbenzo[d]thiazol-6-yl)oxy)ethyl)benzenesulfonamide]
2.5	COc1cnc2c(-c3nc4c(C)cc(OCCNS(=O)(=O)c5ccc(F)cc5)cc4s3)cc(Cl)cc2n1 [Example 199, N-(2-((2-(7-chloro-2-methoxyquinoxalin-5-yl)-4-methylbenzo[d]thiazol-6-yl)oxy)ethyl)-4-fluorobenzenesulfonamide]
3.5	COc1cnc2c(-c3nc4cc(F)c(O[C@@H](C)[C@@H](C)OC(=O)Nc5ccc6[nH]c(=O)oc6c5)cc4s3)cc(C)cc2n1 [Example 406, (2R,3S)-3-((5-fluoro-2-(2-methoxy-7-methylquinoxalin-5-yl)benzo[d]thiazol-6-yl)oxy)butan-2-yl (2-oxo-2,3-dihydrobenzo[d]oxazol-6-yl)carbamate]
0.9	CCOc1cnc2c(-c3nc4cc(F)c(O[C@@H](C)[C@@H](C)OC(=O)Nc5cnc(CO)nc5)cc4s3)cc(C)cc2n1 [Example 529, (2R,3S)-3-((2-(2-ethoxy-7-methylquinoxalin-5-yl)-5-fluorobenzo[d]thiazol-6-yl)oxy)butan-2-yl (2-(hydroxymethyl)pyrimidin-5-yl)carbamate]
170	COc1cnc2c(-c3cc4c(OCc5ccccc5)cccc4o3)cc(C)cc2n1 [Example 43, 5-(4-(benzyloxy)benzofuran-2-yl)-2-methoxy-7-methylquinoxaline]
1.9	COc1cnc2c(-c3nc4cc(F)c(OC[C@@H](C)OC(=O)Nc5ccc(N6CCOC6=O)nc5)cc4s3)cc(C)cc2n1 [Example 609, (R)-1-((5-fluoro-2-(2-methoxy-7-methylquinoxalin-5-yl)benzo[d]thiazol-6-yl)oxy)propan-2-yl (6-(2-oxooxazolidin-3-yl)pyridin-3-yl)carbamate]
34	COc1cnc2c(-c3nc4cc(F)c(OC[C@@H](C)OC(=O)Nc5cnc(C)c(CO)c5)cc4s3)cc(C)cc2n1 [Example 544, (R)-1-((5-fluoro-2-(2-methoxy-7-methylquinoxalin-5-yl)benzo[d]thiazol-6-yl)oxy)propan-2-yl (5-(hydroxymethyl)-6-methylpyridin-3-yl)carbamate]
2	COc1cnc2c(-c3nc4c(Cl)c(F)c(O[C@@H](C)[C@@H](C)OC(=O)Nc5cncc(C#N)c5)cc4s3)cc(Cl)cc2c1 [Example 802, (2R,3S)-3-((4-chloro-2-(6-chloro-3-methoxyquinolin-8-yl)-5-fluorobenzo[d]thiazol-6-yl)oxy)butan-2-yl (5-cyanopyridin-3-yl)carbamate]
3.5	COc1c(F)cc(F)c2nc(-c3cc(C)cc4nc(OC(F)F)cnc34)sc12 [Example 13, 2-(2-(difluoromethoxy)-7-methylquinoxalin-5-yl)-4,6-difluoro-7-methoxybenzo[d]thiazole]
1.7	COc1cnc2c(-c3nc4cc(F)c(OC[C@@H](C)OC(=O)Nc5cnc(OCCO)nc5)nc4s3)cc(C)cc2n1 [Example 685, (R)-1-((6-fluoro-2-(2-methoxy-7-methylquinoxalin-5-yl)thiazolo[5,4-b]pyridin-5-yl)oxy) propan-2-yl (2-(2-hydroxyethoxy)pyrimidin-5-yl)carbamate]
3.7	COc1cnc2c(-c3nc4cc(F)c(OC[C@@H](C)OC(=O)Nc5cnc(CCO)nc5)cc4s3)cc(C)cc2n1 [Example 564, (R)-1-((5-fluoro-2-(2-methoxy-7-methylquinoxalin-5-yl)benzo[d]thiazol-6-yl)oxy)propan-2-yl (2-(2-hydroxyethyl)pyrimidin-5-yl)carbamate]
3.6	CCOc1cnc2c(-c3nc4c(C(O)C(C)(C)C)cc(OC)cc4s3)cc(C)cc2n1 (stereo not shown) [Example 817, 1-(2-(2-ethoxy-7-methylquinoxalin-5-yl)-6-methoxybenzo[d]thiazol-4-yl)-2,2-dimethylpropan-1-ol]
5.4	COc1cnc2c(-c3nc4cc(F)c(O[C@@H](C)[C@@H](C)OC(=O)Nc5ccc(C(=O)N6CCOCC6)nc5)cc4s3)cc(C)cc2n1 [Example 426, (2R,3S)-3-((5-fluoro-2-(2-methoxy-7-methylquinoxalin-5-yl)benzo[d]thiazol-6-yl)oxy)butan-2-yl (6-(morpholine-4-carbonyl)pyridin-3-yl)carbamate]
0.6	COCc1cnc2c(-c3nc4ccc(OC)cc4s3)cc(C)cc2n1 [Example 253, 6-methoxy-2-(2-(methoxymethyl)-7-methylquinoxalin-5yl)benzo[d]thiazole]
140	COc1cnc2c(-c3nc4c(C)c(F)c(OC)cc4s3)cc(C(O)C3CC3)cc2n1 (stereo not shown) [Example 246, Cyclopropyl(8-(5-fluoro-6-methoxy-4-methylbenzo[d]thiazol-2-yl)-3-methoxyquinoxalin-6-yl)methanol]
1.3	COc1cnc2c(-c3nc4cc(F)c(O[C@@H](C)[C@@H](C)OC(=O)Nc5cnc(C(N)=O)nc5)cc4s3)cc(C)cc2n1 [Example 454, (2R,3S)-3-((5-fluoro-2-(2-methoxy-7-methylquinoxalin-5-yl)benzo[d]thiazol-6-yl)oxy)butan-2-yl (2-carbamoylpyrimidin-5-yl)carbamate]
0.2	COCc1cnc2c(-c3nc4c(Cl)cc(OCCNS(=O)(=O)c5ccc(F)cc5)cc4s3)cc(C)cc2n1 [Example 101, N-(2-(4-chloro-2-(2-(methoxymethyl)-7-methylquinoxalin-5-yl)benzo[d]thiazol-6-yloxy)ethyl)-4-fluorobenzenesulfonamide]
